Source: the NIST ThermoML archive (doi:10.1016/j.tca.2016.05.013)
± gives the expanded uncertainty stated by the source.

Key:
[1] = mn = molality of the nth substance listed, in mol/kg; details: 86.8 kPa, Liquid; for viscosity: Falling or rolling sphere viscometry; for speed of sound: Frequency=3 MHz, Sing-around technique in a fixed-path interferometer; for mass density: Vibrating tube method
[2] = refractive index (Na D-line) (dimensionless); mn = molality of the nth substance listed, in mol/kg; details: 86.8 kPa, Liquid, Standard Abbe refractometry

CCCCn1cc[n+](C)c1.O=C([O-])c1ccccc1O [1-butyl-3-methylimidazolium salicylate] + O
Details | mass density, [1] [kg/m3] | refractive index, [2] | speed of sound, [1] [m/s] | viscosity, [1] [mPa·s]
288.15 K, m1 = 0.1012 | – | – | – | 1.289 ± 0.035
288.15 K, m1 = 0.1032 | 1004.94 ± 1.2 | 1.3381 ± 0.004 | 1484.4 ± 1.2 | 1.296 ± 0.035
288.15 K, m1 = 0.1055 | 1005.04 ± 1.2 | 1.3383 ± 0.004 | 1484.4 ± 1.2 | –
288.15 K, m1 = 0.2001 | 1010.28 ± 3.6 | 1.3427 ± 0.004 | 1499.1 ± 1.2 | –
288.15 K, m1 = 0.2005 | 1010.45 ± 3.6 | 1.3429 ± 0.004 | 1499.5 ± 1.2 | –
288.15 K, m1 = 0.2124 | – | – | – | 1.432 ± 0.036
288.15 K, m1 = 0.2146 | – | – | – | 1.44 ± 0.036
288.15 K, m1 = 0.2965 | 1015.79 ± 1.2 | 1.3479 ± 0.004 | 1513.9 ± 1.3 | –
288.15 K, m1 = 0.3002 | 1015.82 ± 1.2 | 1.3479 ± 0.004 | 1513.6 ± 1.3 | –
288.15 K, m1 = 0.3146 | – | – | – | 1.535 ± 0.036
288.15 K, m1 = 0.3152 | – | – | – | 1.536 ± 0.036
298.15 K, m1 = 0.1012 | – | – | – | 1.037 ± 0.035
298.15 K, m1 = 0.1032 | 1002.65 ± 1.3 | 1.3376 ± 0.004 | 1512 ± 1.2 | 1.042 ± 0.035
298.15 K, m1 = 0.1055 | 1002.65 ± 1.3 | 1.3376 ± 0.004 | 1511.9 ± 1.2 | –
298.15 K, m1 = 0.2001 | 1007.67 ± 10 | 1.342 ± 0.004 | 1524.5 ± 1.2 | –
298.15 K, m1 = 0.2005 | 1007.91 ± 1.9 | 1.342 ± 0.004 | 1524.8 ± 1.2 | –
298.15 K, m1 = 0.2124 | – | – | – | 1.159 ± 0.035
298.15 K, m1 = 0.2146 | – | – | – | 1.162 ± 0.035
298.15 K, m1 = 0.2965 | 1012.99 ± 1.3 | 1.3468 ± 0.004 | 1537 ± 1.3 | –
298.15 K, m1 = 0.3002 | 1012.91 ± 1.5 | 1.3468 ± 0.004 | 1537 ± 1.3 | –
298.15 K, m1 = 0.3146 | – | – | – | 1.256 ± 0.035
298.15 K, m1 = 0.3152 | – | – | – | 1.253 ± 0.035
308.15 K, m1 = 0.1012 | – | – | – | 0.869 ± 0.035
308.15 K, m1 = 0.1032 | 999.4 ± 1.3 | 1.3365 ± 0.004 | 1532.3 ± 1.2 | 0.872 ± 0.035
308.15 K, m1 = 0.1055 | 999.44 ± 1.3 | 1.3365 ± 0.004 | 1532.4 ± 1.2 | –
308.15 K, m1 = 0.2001 | 1004.28 ± 8 | 1.3407 ± 0.004 | 1543.5 ± 1.3 | –
308.15 K, m1 = 0.2005 | 1004.44 ± 1.9 | 1.3408 ± 0.004 | 1543.3 ± 1.3 | –
308.15 K, m1 = 0.2124 | – | – | – | 0.981 ± 0.035
308.15 K, m1 = 0.2146 | – | – | – | 0.986 ± 0.035
308.15 K, m1 = 0.2965 | 1009.39 ± 1.5 | 1.3456 ± 0.004 | 1553.8 ± 1.3 | –
308.15 K, m1 = 0.3002 | 1009.41 ± 1.5 | 1.3455 ± 0.004 | 1553.8 ± 1.3 | –
308.15 K, m1 = 0.3146 | – | – | – | 1.078 ± 0.035
308.15 K, m1 = 0.3152 | – | – | – | 1.076 ± 0.035
318.15 K, m1 = 0.1012 | – | – | – | 0.748 ± 0.034
318.15 K, m1 = 0.1032 | 995.42 ± 1.2 | 1.335 ± 0.004 | 1546.8 ± 1.2 | 0.751 ± 0.034
318.15 K, m1 = 0.1055 | 995.43 ± 1.2 | 1.3352 ± 0.004 | 1547.3 ± 1.2 | –
318.15 K, m1 = 0.2001 | 1000.19 ± 2 | 1.3393 ± 0.004 | 1555.9 ± 1.3 | –
318.15 K, m1 = 0.2005 | 1000.27 ± 2 | 1.3395 ± 0.004 | 1556 ± 1.3 | –
318.15 K, m1 = 0.2124 | – | – | – | 0.87 ± 0.035
318.15 K, m1 = 0.2146 | – | – | – | 0.876 ± 0.035
318.15 K, m1 = 0.2965 | 1005.07 ± 1.2 | 1.344 ± 0.004 | 1565 ± 1.3 | –
318.15 K, m1 = 0.3002 | 1004.98 ± 1.2 | 1.344 ± 0.004 | 1564.8 ± 1.3 | –
318.15 K, m1 = 0.3146 | – | – | – | 0.962 ± 0.035
318.15 K, m1 = 0.3152 | – | – | – | 0.96 ± 0.035
